{
  "source": "paper PMC6766655",
  "about": "“AhR–ROR-γt complex is a therapeutic target for MAP4K3/GLK^highIL-17A^high subpopulation of systemic lupus erythematosus” (The FASEB Journal, 2019)",
  "key": {"[1]": {"tested_on": "in vitro differentiated Th17 cells", "experiment": "IL-17A production of in vitro differentiated Th17 cells stimulated with PMA plus ionomycin (flow cytometry)", "format": "cell-based, murine", "settings": "1 or 5 μM for 30 min", "experimental": "Supplementary Figure 5. Verteporfin inhibits both Th17 differentiation and IL-17A production from in vitro differentiated Th17 cells. (A) Flow cytometry of IL-17A-producing CD4^+ T cells. Splenic T cells were co-treated with verteporfin (C1) (1 or 5 μM) during Th17 differentiation in vitro (for 3 days). (B) Flow cytometry of IL-17A-producing CD4^+ T cells. Murine in vitro differentiated Th17 cells were stimulated with PMA plus ionomycin and co-treated with verteporfin (C1) (1 or 5 μM) for 30 min. Data shown are representatives of two independent experiments."}, "[2]": {"tested_on": "GLK-induced NF-κB luciferase activity of CHO-GLK-Luc cells", "experiment": "Cell-based NF-κB luciferase reporter assay in GLK-transfected CHO-K1 cells", "set-up": "species or system Chinese hamster", "settings": "stable GLK-transfected CHO-K1 cells; Fig. 3A", "experimental": "Cell-based high‐throughput screening was conducted against a representative library of 100,000 molecules at ∼10 μM. The Chinese hamster ovary CHO-K1 (ATCC, CCL-61) cells expressing GLK and NF-κB luciferase (Luc) reporter were used. The reaction volume was 5 μl (500 cells) per well in 1536‐well plates. There was no positive control. This high‐throughput screening campaign was successful, with a determined Z' factor of 0.57 ∼ 0.60. […] At the end, 1392 compounds were identified for high inhibition (>80%) of the GLK-induced NF-κB luciferase activity of CHO‐GLK‐Luc cells. These 1392 compounds were further screened for the inhibition of GLK kinase activity by in vitro kinase assays using the kinase-dead PKC-θ protein as the substrate. From the screening, 2 potential small-molecule GLK inhibitors [half maximal inhibitory concentration (IC50) < 10 μM] were identified.\nFigure 3 Verteporfin (C1) blocks the AhR–ROR-γt complex in human autoimmune T cells. A) Luciferase activity of NF-κB–driven reporter assays in stable GLK-transfected CHO-K1 cells that were treated with or without C1 under the indicated concentration. The fold changes are presented relative to the value of vector control. […] D) Quantification of the PLA signals shown in panel C. *P < 0.05, ***P < 0.001 (2-tailed Student’s t test)."}, "AhR–ROR-γt complex": {"tested_on": "AhR–ROR-γt complex", "experiment": "In situ proximity ligation assay in peripheral blood T cells from patients with SLE or RA", "format": "cell-based, human", "settings": "5 μM for 30 min; T cells from patients with SLE and RA", "experimental": "(§1) Proximity ligation assays (PLAs) were performed using the Duolink In Situ Red Starter Kit (MilliporeSigma) according to the manufacturer’s instructions ([24]). Briefly, cells were incubated with rabbit or mouse primary antibodies for the AhR–plus–ROR-γt pair, followed by species-specific secondary antibodies that are conjugated with oligonucleotides (PLA probes). After ligation and amplification reactions for 100 min, the PLA signals from each pair of PLA probes in close proximity (<40 nm) were visualized as individual red dots by a confocal microscope (TCS SP5II; Leica Microsystems, Buffalo Grove, IL, USA). Red dots represent direct interaction signals.\n(§2) After verification of the induction of GLK–AhR–ROR-γt–IL-17A signaling in human SLE T cells, we next studied whether the GLK–AhR–ROR-γt signaling is a therapeutic target for autoimmune diseases. Because there are no known commercial GLK inhibitors, we performed high-throughput screening of 101,200 compounds to identify GLK inhibitors using both cell-based luciferase reporter assays and in vitro kinase assays. […] Nevertheless, the IC50 of verteporfin for MAP4K3-GLK was the lowest one. […]\n(§3) Figure 3 Verteporfin (C1) blocks the AhR–ROR-γt complex in human autoimmune T cells. […] D) Quantification of the PLA signals shown in panel C. *P < 0.05, ***P < 0.001 (2-tailed Student’s t test)."}, "[3]": {"tested_on": "AhR–phosphorylated ROR-γt (Ser-489) complex", "experiment": "In situ proximity ligation assay in peripheral blood T cells from patients with SLE or RA", "format": "cell-based, human", "settings": "5 μM for 30 min; T cells from patients with SLE and RA", "experimental": "as §1, §2, §3"}, "GLK (MAP4K3)": {"biological_target": "T1, GLK (MAP4K3) (Homo sapiens, UniProt Q8IVH8)", "T1 construct": "Recombinant proteins of kinase domains of various MAP4Ks were used; purchased Promega", "T1 sequence (Q8IVH8 16-273 limits assumed)": "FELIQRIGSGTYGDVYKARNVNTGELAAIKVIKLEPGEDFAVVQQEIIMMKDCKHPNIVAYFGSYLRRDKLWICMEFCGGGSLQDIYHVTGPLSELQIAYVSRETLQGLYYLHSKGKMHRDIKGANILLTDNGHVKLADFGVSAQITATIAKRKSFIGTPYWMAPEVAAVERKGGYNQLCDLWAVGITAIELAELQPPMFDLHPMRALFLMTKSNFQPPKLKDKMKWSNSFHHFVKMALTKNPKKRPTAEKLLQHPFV", "experiment": "In vitro kinase assay, myelin basic protein as substrate (ADP-Glo)", "format": "biochemical", "settings": "recombinant kinase domain", "experimental": "(§4) GLK kinase activity was determined by measuring the rate of ADP production in the in vitro kinase reaction using ADP-Glo Kinase Assay Kit (Promega). For the kinase reaction, recombinant proteins of the GLK kinase domain (1 μg) were incubated with recombinant proteins of kinase-dead PKC-θ (K409W; 0.15 μg) plus ATP (0.1 mM) or myelin basic protein (MilliporeSigma) plus ATP (0.1 mM) in kinase buffer [40 mM Tris-HCl (pH 7.5), 20 mM MgCl2, 0.1 mg/ml bovine serum albumin, 10 mM DTT, and 0.1 mM Na3VO4] for 30 min at room temperature."}, "GCK (MAP4K2)": {"biological_target": "T2, GCK (MAP4K2) (Homo sapiens, UniProt Q12851)", "T2 construct": "Recombinant proteins of kinase domains of various MAP4Ks were used; purchased Promega", "T2 sequence (Q12851 16-273 limits assumed)": "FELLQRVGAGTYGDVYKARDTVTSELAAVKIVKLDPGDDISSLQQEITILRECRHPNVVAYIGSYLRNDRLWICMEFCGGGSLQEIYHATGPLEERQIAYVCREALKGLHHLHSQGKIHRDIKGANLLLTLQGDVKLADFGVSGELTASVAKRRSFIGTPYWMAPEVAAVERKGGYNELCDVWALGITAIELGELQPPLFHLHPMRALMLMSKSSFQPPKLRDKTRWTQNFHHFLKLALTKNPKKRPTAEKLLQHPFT", "experiment": "In vitro kinase assay, myelin basic protein as substrate (ADP-Glo)", "format": "biochemical", "settings": "recombinant kinase domain"}, "GLK kinase domain": {"biological_target": "T3, GLK kinase domain (Homo sapiens, UniProt Q8IVH8)", "T3 construct": "Recombinant proteins of GLK kinase domain plus recombinant proteins of GST-tagged kinase-dead PKC-θ (K409W) were subjected to in vitro kinase assays; made in house; host or cells: Escherichia coli (BL21)", "T3 sequence (Q8IVH8 16-273 limits assumed)": "T1 sequence (Q8IVH8 16-273 limits assumed)", "experiment": "In vitro GLK kinase assay with kinase-dead PKC-θ (K409W) as substrate", "format": "biochemical", "settings": "GST-tagged kinase-dead PKC-θ (K409W) substrate; Fig. 3B", "experimental": "as §4\nCell-based high‐throughput screening was conducted against a representative library of 100,000 molecules at ∼10 μM. The Chinese hamster ovary CHO-K1 (ATCC, CCL-61) cells expressing GLK and NF-κB luciferase (Luc) reporter were used. The reaction volume was 5 μl (500 cells) per well in 1536‐well plates. There was no positive control. This high‐throughput screening campaign was successful, with a determined Z' factor of 0.57 ∼ 0.60. […] At the end, 1392 compounds were identified for high inhibition (>80%) of the GLK-induced NF-κB luciferase activity of CHO‐GLK‐Luc cells. […]\nas §3"}},
  "data": [
    {"substance": "verteporfin", "values": [
      {"measurement": "IL-17A production from in vitro differentiated Th17 cells", "setting": "[1]", "result": "inhibited"},
      {"measurement": "IL-17A production from in vitro differentiated Th17 cells", "setting": "[1]; listed as Verteporfin", "result": "inhibits"},
      {"measurement": "GLK signaling in cell lines (NF-κB-driven luciferase activity)", "setting": "[2]", "result": "efficiently inhibited"},
      {"measurement": "AhR–ROR-γt complex (PLA signals)", "setting": "AhR–ROR-γt complex", "result": "significantly inhibited"},
      {"measurement": "AhR–phosphorylated ROR-γt complex (PLA signals)", "setting": "[3]", "result": "significantly inhibited"},
      {"measurement": "IC50", "setting": "GLK (MAP4K3)", "result": 1.15, "unit": "nM"},
      {"measurement": "IC50", "setting": "GCK (MAP4K2)", "result": 10.3, "unit": "nM"},
      {"measurement": "GLK kinase activity in vitro", "setting": "GLK kinase domain", "result": "efficiently inhibited"}
    ]}
  ]
}
